Test results taken from patent US9550811B2, “Peptide scaffold design” (BIONOR IMMUNO AS, priority 2010, dated 2017).
Where two headings read alike, the source gives them in different places.

Legend:
[1] = system: HLA-A1; assay: REVEAL binding assay; conditions: score as percentage of the signal generated by the positive control peptide
[2] = system: HLA-A24; assay: REVEAL binding assay; conditions: score as percentage of the signal generated by the positive control peptide
Excerpt: (§5) The REVEAL™ binding assay determined the ability of each candidate peptide to bind to one or more MHC class I alleles and stabilizing the MHC-peptide complex. […] Detection is based on the presence or absence of the native conformation of the MHC-peptide complex. Each peptide is given a score relative to the positive control peptide, which is a known T cell epitope.

[3] = system: HLA-A29; assay: REVEAL binding assay; conditions: score as percentage of the signal generated by the positive control peptide
Excerpt: as §5

[4] = system: HLA-B8; assay: REVEAL binding assay; conditions: score as percentage of the signal generated by the positive control peptide
Excerpt: as §5

[5] = system: HLA-B14; assay: REVEAL binding assay; conditions: score as percentage of the signal generated by the positive control peptide
[6] = system: HLA-B15; assay: REVEAL binding assay; conditions: score as percentage of the signal generated by the positive control peptide
[7] = target: HLA-A11 (Homo sapiens, UniProt P04439, A114D/F33Y/S129P); assay: REVEAL binding assay; conditions: score as percentage of the signal generated by the positive control peptide
Procedure: (§1) Binding properties to HLA for the ninemers listed in table 6 were tested for the following HLA-classes:
(§2) HLA-A1, HLA-A2, HLA-A3, HLA-A11, HLA-A24, HLA-A29, HLA-B7, HLA-B8, HLA-B14, HLA-B15, HLA-B27, HLA-B35, HLA-B40.
(§3) The peptides were synthesized as a Prospector PEPscreen®: Custom Peptide Library. […] Quality control by MALDI-TOF Mass Spectrometry was carried out on 100% of samples.
(§4) The REVEAL™ binding assay determined the ability of each candidate peptide to bind to one or more MHC class I alleles and stabilizing the MHC-peptide complex. By comparing the binding to that of high and intermediate affinity T cell epitopes, the most likely immunogenic peptides in a protein sequence can be identified. Detection is based on the presence or absence of the native conformation of the MHC-peptide complex. Each peptide is given a score relative to the positive control peptide, which is a known T cell epitope.

[8] = target: HLA-A2 (Homo sapiens, UniProt P04439, D140Y/D185E/D98H/E176V/E277Q/G131W/G231S/I119V/I121R/I166T/I218V/N151K/N90K/P208A/P217A/Q86G/Q94H/R138H/R169H); assay: REVEAL binding assay; conditions: score as percentage of the signal generated by the positive control peptide
Procedure: as §1, §2, §3, §4

[9] = target: HLA-A3 (Homo sapiens, UniProt P04439); assay: REVEAL binding assay; conditions: score as percentage of the signal generated by the positive control peptide
Sequence of HLA-A3 (P04439 25-299): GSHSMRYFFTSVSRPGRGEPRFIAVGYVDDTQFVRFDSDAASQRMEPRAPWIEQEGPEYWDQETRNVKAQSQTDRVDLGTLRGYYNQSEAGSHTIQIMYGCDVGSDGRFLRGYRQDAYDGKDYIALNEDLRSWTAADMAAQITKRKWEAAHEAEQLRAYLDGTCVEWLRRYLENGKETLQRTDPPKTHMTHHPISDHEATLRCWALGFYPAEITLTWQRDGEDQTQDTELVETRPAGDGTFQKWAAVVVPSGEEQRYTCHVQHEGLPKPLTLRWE
Sequence of HLA-A3 (P61769 21-119, further chain): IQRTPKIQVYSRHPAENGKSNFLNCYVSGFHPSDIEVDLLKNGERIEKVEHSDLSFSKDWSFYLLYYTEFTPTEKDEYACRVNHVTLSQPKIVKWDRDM
Procedure: as §1, §2, §3, §4

[10] = target: HLA-B27 (Homo sapiens, UniProt P01889, D138H/D201E/E176V/E204Q/G107R/H137Y/K202T/N104T/N87E/Q56L/Q94K/R106L/R155S/R180L/S101D/S121N/S48T/Y140D/Y33H/Y91C); assay: REVEAL binding assay; conditions: score as percentage of the signal generated by the positive control peptide
Procedure: as §1, §2, §3, §4

[11] = target: HLA-B7 (Homo sapiens, UniProt P01889); assay: REVEAL binding assay; conditions: score as percentage of the signal generated by the positive control peptide
Sequence of HLA-B7 (P61769 21-119): as the sequence (P61769 21-119, further chain) above
Sequence of HLA-B7 (P01889 25-299): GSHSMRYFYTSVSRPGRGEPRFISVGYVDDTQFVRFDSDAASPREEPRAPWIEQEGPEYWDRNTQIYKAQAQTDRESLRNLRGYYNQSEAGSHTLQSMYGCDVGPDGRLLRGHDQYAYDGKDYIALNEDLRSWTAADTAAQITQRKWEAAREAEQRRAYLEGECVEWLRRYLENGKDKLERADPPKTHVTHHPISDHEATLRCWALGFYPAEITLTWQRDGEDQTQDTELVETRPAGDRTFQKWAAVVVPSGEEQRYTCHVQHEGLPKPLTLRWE
Procedure: as §1, §2, §3, §4

[12] = system: HLA-B35; assay: REVEAL binding assay; conditions: score as percentage of the signal generated by the positive control peptide
Excerpt: as §5

[13] = system: HLA-B40; assay: REVEAL binding assay; conditions: score as percentage of the signal generated by the positive control peptide
Procedure: as §1, §2
The peptides were synthesized as a Prospector PEPscreen®: Custom Peptide Library. Peptides 8-15 amino acids in length were synthesized in 0.5-2 mg quantities with high average purity. Quality control by MALDI-TOF Mass Spectrometry was carried out on 100% of samples.
as §4, with “epitope. The score of the test peptide is reported quantitatively as a percentage of the signal generated by the positive control peptide, and the peptide is indicated as having a putative pass or fail result. Assay performance is confirmed by including an intermediate control peptide that is known to bind with weaker affinity to the allele under investigation.” for “epitope.”

[14] = system: human PBMCs; assay type: cell-based; conditions: With Cytofix/Cytoperm and trypsination, BC20
[15] = system: DC-cells; assay: Cell penetration assay: staining for biotinylated peptides, dendritic cells gated as CD11c+; assay type: cell-based, human; conditions: low concentration of peptides (208 uM)
Procedure: A set of peptides were biotinylated on N-terminal, and different combinations of aminoacids, with respect to length and type, were added to the sequence box X^1, X^3 and X^4 in the peptides as illustrated by the diagram below. The peptides were tested on cells grown from one individual blood donor.
96-well U-bottom polystyrene plates (NUNC, cat no: 163320) were used for staining of human PBMCs. Briefly, 8 ul of N- or C-terminally biotinylated peptides according to table 1 or table 2 (i.e. 5 mM, 2.5 mM & 1.25 mM tested for each peptide) were incubated at 37° C. for 2 h with 40 ul of PBMC (12.5×10^6 cells/ml) from blood donors. Cells were then washed 3× with 150 ul of Cellwash (BD, cat no: 349524), followed by resuspension of each cell pellet with 100 ul of Trypsin-EDTA (Sigma, cat no: T4424), then incubated at 37° C. for 5 min. Trypsinated cells were then washed 3× with 150 ul of Cellwash (BD, cat no: 349524), followed by resuspension with BD Cytofix/Cytoperm™ plus (BD, cat no: 554715), then incubated at 4° C. for 20 min according to manufacturer. Cells were then washed 2× with 150 ul PermWash (BD, cat no: 554715). Cells were then stained with Streptavidin-APC (BD, cat no: 554067) & Anti-hCD11c (eBioscience, cat no: 12-0116) according to manufacturer at 4° C. for 30 min aiming to visualize biotinylated peptides & dendritic cells, respectively. Cells were then washed 3× with 150 ul PermWash, followed by resuspension in staining buffer (BD, cat no: 554656) before flow cytometry. Dendritic cells were gated as CD11c+ events outside lymphocyte region (i.e. higher FSC & SSC signals than lymphocytes). 200 000 total cells were acquired on a FACSCanto II flow cytometer with HTS loader, and histograms for both total cells & dendritic cells with respect to peptide-fluorescence (i.e. GeoMean) were prepared.
As shown in table 4 the peptides according to the invention had the ability to allocate through the cell membrane.

| Sequence | Geomean value (peptide-fluorescence) ([14]; concentration 104 μM) | Geomean value (peptide-fluorescence) ([14]; concentration 208 μM) | Geomean value (peptide-fluorescence) ([14]; concentration 417 μM) | Geomean value (peptide-fluorescence) ([14]; concentration 833 μM) | Results on DC-cells (geomean peptide-fluorescence) ([15]; BC 16) | Results on DC-cells (geomean peptide-fluorescence) ([15]; BC43) | other results |
| --- | --- | --- | --- | --- | --- | --- | --- |
| QIVGGVYLL |  |  |  |  |  |  | REVEAL binding score, HLA-type A1 [1]: 20.25%; REVEAL binding score, HLA-type A24 [2]: 1.01%; REVEAL binding score, HLA-type A29 [3]: 13.36%; REVEAL binding score, HLA-type B8 [4]: 13.15%; REVEAL binding score, HLA-type B14 [5]: 0.37%; REVEAL binding score, HLA-type B15 [6]: 15.07%; REVEAL binding score, HLA-type A11 [7]: 1.96%; REVEAL binding score, HLA-type A2 [8]: 57.04%; REVEAL binding score, HLA-type A3 [9]: 2.36%; REVEAL binding score, HLA-type B27 [10]: 0.60%; REVEAL binding score, HLA-type B7 [11]: 28.66%; REVEAL binding score, HLA-type B35 [12]: 4.01%; REVEAL binding score, HLA-type B40 [13]: 24.51% |
| ARALAHGVR |  |  |  |  |  |  | REVEAL binding score, HLA-type A1 [1]: 20.62%; REVEAL binding score, HLA-type A24 [2]: 1.15%; REVEAL binding score, HLA-type A29 [3]: 31.96%; REVEAL binding score, HLA-type B8 [4]: 18.91%; REVEAL binding score, HLA-type B14 [5]: 1.10%; REVEAL binding score, HLA-type B15 [6]: 13.58%; REVEAL binding score, HLA-type A11 [7]: 3.83%; REVEAL binding score, HLA-type A2 [8]: 6.72%; REVEAL binding score, HLA-type A3 [9]: 2.35%; REVEAL binding score, HLA-type B27 [10]: 3.55%; REVEAL binding score, HLA-type B7 [11]: 4.70%; REVEAL binding score, HLA-type B35 [12]: 2.45%; REVEAL binding score, HLA-type B40 [13]: 50.23% |
| RLGVRATRK |  |  |  |  |  |  | REVEAL binding score, HLA-type A1 [1]: 20.39%; REVEAL binding score, HLA-type A24 [2]: 0.28%; REVEAL binding score, HLA-type A29 [3]: 12.83%; REVEAL binding score, HLA-type B8 [4]: 10.21%; REVEAL binding score, HLA-type B14 [5]: 0.07%; REVEAL binding score, HLA-type B15 [6]: 11.74%; REVEAL binding score, HLA-type B35 [12]: 2.83%; REVEAL binding score, HLA-type B40 [13]: 23.05% |
| RGYIPLVGAPLGKKKVARALAHGVRV [SP9] | 1268 | 2945 | 6060 | 11344 | 8356 | 10084 |  |
| SFSIELLAL |  |  |  |  |  |  | REVEAL binding score, HLA-type B40 [13]: 21.04% |
| RRGYIPLVGAPLGRRVARALAHGVRV [SP5] | 6152 | 19065 | 46060 | 40534 | 21358 | 29146 |  |
| BRGYIPLVGAPLGRRVARALAHGVRV [SP7] | 2766 | 10481 | 30503 | 47922 | 16064 | 21414 |  |
| RRRGYIPLVGAPLGBRVARALAHGVRV [SP8] | 2917 | 9617 | 28606 | 31976 | 15379 | 17836 |  |
| GPRLGVRAT |  |  |  |  |  |  | REVEAL binding score, HLA-type A1 [1]: 13.85%; REVEAL binding score, HLA-type A24 [2]: 0.05%; REVEAL binding score, HLA-type A29 [3]: 12.66%; REVEAL binding score, HLA-type B8 [4]: 13.18%; REVEAL binding score, HLA-type B14 [5]: 0.94%; REVEAL binding score, HLA-type B15 [6]: 10.01%; REVEAL binding score, HLA-type B35 [12]: 1.83%; REVEAL binding score, HLA-type B40 [13]: 19.95% |
| RGYIPLVGAPLGRRRVARALAHGVRV [SP10] | 3709 | 7684 | 18607 | 43389 | 8627 | 9216 |  |
| WWGYIPLVGAPLGRRVARALAHGVRV [SP13] |  | 332 | 394 | 568 | 28539 | 9129 |  |
| KKGYIPLVGAPLGKKVARALAHGVRV [SP11] | 601 | 1277 | 3562 | 8262 | 6490 | 13230 |  |
| RRGYIPLVGAPLGLRRVARALAHGVRV [SP17] | 1500 | 12244 | 29967 | 30248 | 67428 |  |  |
| EEGYIPLVGAPLGRRVARALAHGVRV [SP16] | 505 | 1260 | 2240 | 4558 | 5730 | 3656 |  |
| RRGPVVHLTLRRRGQAGDDFS [SP18] | 1038 | 1971 | 1334 | 4869 | 5545 | 7751 |  |
| RRGYIPLVGAPLGRRRVARALAHGVRV [SP6] | 1850 | 6514 | 22195 | 32577 | 10233 | 14468 |  |
| RRGPVVHLTLRGRRGQAGDDFS [SP20] | 445 | 1268 | 2457 | 7319 | 19051 | 3383 |  |
| RRGYIPLVGAPLGBGRVARALAHGVRV [SP2] | 1211 |  | 5486 | 3136 | 6677 | 6112 |  |
